Measurements published in US8697739B2, “Bicyclic acetyl-CoA carboxylase inhibitors and uses thereof” (Novartis AG, priority 2010, dated 2014).

Biological target: T1, human acetyl-CoA carboxylase 2 (ACC2) (Homo sapiens, UniProt O00763)
T1 construct: The cDNA encoding amino acids 144 to 2458 of human acetyl-CoA carboxylase 2; made in house; host or cells: Sf9 insect cells (baculovirus, pFastBac1)
Experiment: Acetyl-CoA carboxylase enzyme assay (malonyl-CoA formation by LC/MS/MS)
Assay type: biochemical
Details: recombinant human ACC2 (aa 144-2458); read-out: IC50 ACC2
Method in brief: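 Malonyl-CoA formation was read by LC/MS/MS MRM against a [13C3]-malonyl-CoA internal standard, after acetic acid quench. The enzyme was baculovirus/Sf9-expressed human ACC2 residues 144–2458, given 15 minutes room-temperature compound preincubation in HEPES pH 7.5 buffer with MgCl2, citrate and DTT. Substrate solution held 50 μM acetyl-CoA, 120 μM ATP and 2 mM KHCO3.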

T1 sequence (O00763 144-2458): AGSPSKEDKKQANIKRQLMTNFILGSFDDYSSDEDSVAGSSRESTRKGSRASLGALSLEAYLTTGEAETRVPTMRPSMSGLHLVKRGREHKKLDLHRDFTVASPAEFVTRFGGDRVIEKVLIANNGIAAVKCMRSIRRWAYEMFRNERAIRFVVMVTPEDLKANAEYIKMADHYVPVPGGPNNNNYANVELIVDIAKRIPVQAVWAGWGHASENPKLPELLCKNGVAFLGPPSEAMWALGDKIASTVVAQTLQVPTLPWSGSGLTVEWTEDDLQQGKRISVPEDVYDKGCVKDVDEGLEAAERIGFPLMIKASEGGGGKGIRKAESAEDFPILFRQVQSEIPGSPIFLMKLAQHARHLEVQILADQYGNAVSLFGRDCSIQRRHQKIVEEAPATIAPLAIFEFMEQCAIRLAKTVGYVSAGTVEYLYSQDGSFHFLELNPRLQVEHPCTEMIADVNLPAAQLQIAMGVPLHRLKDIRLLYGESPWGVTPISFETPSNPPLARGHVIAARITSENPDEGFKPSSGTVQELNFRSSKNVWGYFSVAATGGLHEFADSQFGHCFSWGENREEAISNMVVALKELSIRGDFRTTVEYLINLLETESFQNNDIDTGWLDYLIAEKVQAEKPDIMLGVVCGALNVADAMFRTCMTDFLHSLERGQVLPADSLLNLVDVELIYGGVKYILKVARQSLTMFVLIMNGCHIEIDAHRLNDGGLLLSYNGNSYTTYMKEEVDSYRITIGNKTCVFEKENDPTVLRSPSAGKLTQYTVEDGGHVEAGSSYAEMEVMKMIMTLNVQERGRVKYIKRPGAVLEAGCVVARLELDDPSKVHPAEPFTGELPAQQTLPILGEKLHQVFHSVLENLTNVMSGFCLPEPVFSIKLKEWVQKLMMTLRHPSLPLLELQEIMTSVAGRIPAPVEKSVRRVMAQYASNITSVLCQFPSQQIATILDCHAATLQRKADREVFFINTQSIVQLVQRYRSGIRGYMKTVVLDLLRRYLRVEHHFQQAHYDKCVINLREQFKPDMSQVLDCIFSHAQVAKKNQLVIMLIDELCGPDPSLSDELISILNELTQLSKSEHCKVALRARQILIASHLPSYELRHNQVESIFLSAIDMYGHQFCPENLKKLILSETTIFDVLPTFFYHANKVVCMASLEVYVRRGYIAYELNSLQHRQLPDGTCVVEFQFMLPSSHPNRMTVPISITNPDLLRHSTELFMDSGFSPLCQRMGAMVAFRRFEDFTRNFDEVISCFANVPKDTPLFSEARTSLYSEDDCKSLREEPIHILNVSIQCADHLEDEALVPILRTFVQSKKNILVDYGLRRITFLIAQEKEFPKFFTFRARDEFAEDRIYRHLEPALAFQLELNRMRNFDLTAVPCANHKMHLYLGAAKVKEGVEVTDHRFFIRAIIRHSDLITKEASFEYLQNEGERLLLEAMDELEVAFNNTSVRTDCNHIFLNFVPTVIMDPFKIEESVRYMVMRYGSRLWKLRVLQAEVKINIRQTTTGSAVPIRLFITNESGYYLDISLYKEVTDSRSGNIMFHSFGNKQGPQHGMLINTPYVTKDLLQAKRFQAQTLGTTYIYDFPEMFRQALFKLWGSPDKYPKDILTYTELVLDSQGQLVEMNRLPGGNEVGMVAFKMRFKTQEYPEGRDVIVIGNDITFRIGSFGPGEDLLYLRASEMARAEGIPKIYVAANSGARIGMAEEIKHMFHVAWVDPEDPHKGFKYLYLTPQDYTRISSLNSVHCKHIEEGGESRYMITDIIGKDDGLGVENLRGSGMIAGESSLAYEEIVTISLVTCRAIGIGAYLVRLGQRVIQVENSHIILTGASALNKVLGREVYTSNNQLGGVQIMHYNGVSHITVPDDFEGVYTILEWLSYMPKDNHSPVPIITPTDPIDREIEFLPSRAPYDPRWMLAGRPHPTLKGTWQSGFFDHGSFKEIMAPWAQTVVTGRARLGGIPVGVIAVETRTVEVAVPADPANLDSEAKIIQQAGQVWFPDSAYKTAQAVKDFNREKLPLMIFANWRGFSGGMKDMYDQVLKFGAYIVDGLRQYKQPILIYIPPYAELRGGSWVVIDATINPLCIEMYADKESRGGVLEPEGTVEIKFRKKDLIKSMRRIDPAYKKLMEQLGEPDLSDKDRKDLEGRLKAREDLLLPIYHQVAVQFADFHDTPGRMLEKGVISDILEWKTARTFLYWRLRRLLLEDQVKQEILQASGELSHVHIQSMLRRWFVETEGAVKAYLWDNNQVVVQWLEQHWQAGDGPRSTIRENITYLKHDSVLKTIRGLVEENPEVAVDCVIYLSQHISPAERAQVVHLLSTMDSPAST

Question: For C[C@@H](NC(=O)[C@H]1CC[C@H](NS(=O)(=O)c2ccc3cc(C4CC4)[nH]c3c2)CC1)c1ccc(F)cc1 [Example 290, (1r,4R)-4-(2-cyclopropyl-1H-indole-6-sulfonamido)-N-((R)-1-(4-fluorophenyl)ethyl)cyclohexanecarboxamide], which IC50 is on record?
Answer: Its IC50 is 28 nM.

Question: With Cn1c(-c2ccc(CCC(=O)O)cc2)cc2ccc(S(=O)(=O)N[C@H]3CC[C@H](C(=O)N4CCCC4c4ccc(F)cc4)CC3)cc21 (stereo partly drawn) [Example 387, 3-(4-(6-(N-((1r,4r)-4-(2-(4-fluorophenyl)pyrrolidine-1-carbonyl)cyclohexyl)sulfamoyl)-1-methyl-1H-indol-2-yl)phenyl)propanoic acid] as the compound, how does the IC50 read?
Answer: Its IC50 is < 10 nM.

Question: How did the IC50 turn out when C[C@@H](NC(=O)[C@H]1CC[C@H](NS(=O)(=O)c2ccc3cc(-c4ccccc4C#N)[nH]c3c2)CC1)c1ccc(F)cc1 [Example 307, (1r,4R)-4-(2-(2-cyanophenyl)-1H-indole-6-sulfonamido)-N-((R)-1-(4-fluorophenyl)ethyl)cyclohexanecarboxamide] was run?
Answer: Its IC50 is 10 nM.

Question: With CC(C)OC(=O)c1ccc(NS(=O)(=O)c2ccc3[nH]c(Nc4ccc5c(c4)OCCO5)nc3c2)cc1 [Example 526, isopropyl 4-(2-(2,3-dihydrobenzo[b][1,4]dioxin-6-ylamino)-1H-benzo[d]imidazole-5-sulfonamido)benzoate] as the compound, how does the IC50 read?
Answer: The IC50 was 178 nM.

Question: How did the IC50 turn out when COC(=O)CN1CCCc2ccc(S(=O)(=O)N[C@H]3CC[C@H](C(=O)N[C@H](C)c4ccc(F)cc4)CC3)cc21 [Example 164, methyl 2-(7-(N-((1R,4r)-4-((R)-1-(4-fluorophenyl)ethylcarbamoyl)cyclohexyl)sulfamoyl)-3,4-dihydroquinolin-1(2H)-yl)acetate] was run?
Answer: The IC50 was 350 nM.

Question: Which IC50 does the source give for CCOC(=O)c1cccc(-c2nc3ccc(S(=O)(=O)N[C@H]4CC[C@H](C(=O)N[C@H](C)c5ccccc5)CC4)cc3[nH]2)c1 [Example 2, ethyl 3-(6-(N-((1R,4r)-4-((R)-1-phenylethylcarbamoyl)cyclohexyl)sulfamoyl)-1H-benzo[d]imidazol-2-yl)benzoate] here?
Answer: Its IC50 is 19 nM.

Question: For CCCCNC(=O)[C@H]1CC[C@H](NS(=O)(=O)c2ccc3[nH]c(-c4ccccc4)nc3c2)CC1 [Example 633, (1r,4r)-N-butyl-4-(2-phenyl-1H-benzo[d]imidazole-5-sulfonamido)cyclohexanecarboxamide], which IC50 is on record?
Answer: The IC50 was 1170 nM.

Question: Which IC50 does the source give for COC(=O)[C@H]1CC[C@H](CNS(=O)(=O)c2ccc3oc4ccccc4c3c2)CC1 [Example 267, (1r,4r)-methyl 4-((dibenzo[b,d]furan-2-sulfonamido)methyl)cyclohexanecarboxylate] here?
Answer: Its IC50 is > 35000 nM.

Question: With COC(=O)CCc1ccc(-c2c(Cl)c3ccc(S(=O)(=O)N[C@H]4CC[C@H](C(=O)N5CCCCC5)CC4)cc3n2C)cc1 [Example 360, methyl 3-(4-(3-chloro-1-methyl-6-(N-((1r,4r)-4-(piperidine-1-carbonyl)cyclohexyl)sulfamoyl)-1H-indol-2-yl)phenyl)propanoate] as the compound, how does the IC50 read?
Answer: The IC50 was 35 nM.

Question: C[C@@H](NC(=O)[C@H]1CC[C@H](NS(=O)(=O)c2ccc3[nH]c(Nc4ccc(N5CCOCC5)cc4)nc3c2)CC1)c1ccccc1 [Example 574, (1r,4R)-4-(2-(4-morpholinophenylamino)-1H-benzo[d]imidazole-5-sulfonamido)-N-((R)-1-phenylethyl)cyclohexanecarboxamide] was tested. Which IC50 did it give?
Answer: The IC50 was < 10 nM.

Question: With Cn1c(-c2ccccc2)cc2ccc(S(=O)(=O)N[C@H]3CC[C@H](C(=O)N[C@H](CO)c4ccccc4)CC3)cc21 [Example 353, (1r,4S)-N-((S)-2-hydroxy-1-phenylethyl)-4-(1-methyl-2-phenyl-1H-indole-6-sulfonamido)cyclohexanecarboxamide] as the compound, how does the IC50 read?
Answer: The IC50 was < 10 nM.

Question: With C[C@@H](NC(=O)[C@H]1CC[C@H](NS(=O)(=O)c2cnc3c(c2)NCCS3)CC1)c1ccc(F)cc1 [Example 35, (1r,4R)-4-(2,3-dihydro-1H-pyrido[2,3-b][1,4]thiazine-7-sulfonamido)-N—((R)-1-(4-fluorophenyl)ethyl)cyclohexanecarboxamide] as the compound, how does the IC50 read?
Answer: Its IC50 is 10 nM.

Question: CC(C)(C)OC(=O)c1ccc(NS(=O)(=O)c2ccc3[nH]c(-c4ccccc4)nc3c2)cc1 [Example 489, tert-butyl 4-(2-phenyl-1H-benzo[d]imidazole-5-sulfonamido)benzoate] was tested. Which IC50 did it give?
Answer: Its IC50 is 1110 nM.

Question: CC(NC(=O)[C@H]1CC[C@H](NS(=O)(=O)c2ccc3c(c2)N(C)CCC3)CC1)c1ccncc1 (stereo partly drawn) [Example 161, (1r,4r)-4-(1-methyl-1,2,3,4-tetrahydroquinoline-7-sulfonamido)-N-(1-(pyridin-4-yl)ethyl)cyclohexanecarboxamide] was tested. Which IC50 did it give?
Answer: The IC50 was 340 nM.

Question: For C[C@@H](NC(=O)[C@H]1CC[C@H](NS(=O)(=O)c2ccc3c(c2)NCCC3)CC1)c1ccc(F)cc1 [Example 151, (1r,4R)-N-((R)-1-(4-fluorophenyl)ethyl)-4-(1,2,3,4-tetrahydroquinoline-7-sulfonamido)cyclohexanecarboxamide], which IC50 is on record?
Answer: The IC50 was 47 nM.

Question: How did the IC50 turn out when CC(=O)c1ccc(-c2nc3ccc(S(=O)(=O)Nc4ccc(C(=O)OC(C)C)cc4)cc3[nH]2)cc1 [Example 495, isopropyl 4-(2-(4-acetylphenyl)-1H-benzo[d]imidazole-6-sulfonamido)benzoate] was run?
Answer: Its IC50 is 990 nM.

Question: For C[C@@H](NC(=O)[C@H]1CC[C@H](NS(=O)(=O)c2cnc3ccccc3c2)CC1)c1ccc(F)cc1 [Example 105, (1r,4R)-N-((R)-1-(4-fluorophenyl)ethyl)-4-(quinoline-3-sulfonamido)cyclohexanecarboxamide], which IC50 is on record?
Answer: The IC50 was 252 nM.

Question: For Cc1cc2c(cc1S(=O)(=O)N[C@H]1CC[C@H](C(=O)N[C@H](C)c3ccc(F)cc3)CC1)NCCC2 [Example 188, (1r,4R)-N-((R)-1-(4-fluorophenyl)ethyl)-4-(6-methyl-1,2,3,4-tetrahydroquinoline-7-sulfonamido)cyclohexanecarboxamide], which IC50 is on record?
Answer: The IC50 was 375 nM.

Question: With COc1ccc(-c2cc3ccc(S(=O)(=O)N[C@H]4CC[C@H](C(=O)N5CCOC[C@@H]5C)CC4)cc3n2C)cc1 [Example 440, 2-(4-methoxyphenyl)-1-methyl-N-((1S,4r)-4-((S)-3-methylmorpholine-4-carbonyl)cyclohexyl)-1H-indole-6-sulfonamide] as the compound, how does the IC50 read?
Answer: Its IC50 is 20 nM.

Question: Which IC50 does the source give for C[C@H]1COCCN1C(=O)[C@H]1CC[C@H](NS(=O)(=O)c2ccc3c(C#N)c(C4CC4)n(C)c3c2)CC1 [Example 414, 3-cyano-2-cyclopropyl-1-methyl-N-((1S,4r)-4-((S)-3-methylmorpholine-4-carbonyl)cyclohexyl)-1H-indole-6-sulfonamide] here?
Answer: The IC50 was 80 nM.

Question: With O=C([C@H]1CC[C@H](NS(=O)(=O)c2cnc3ccccc3c2)CC1)N1CCCC1c1ccccc1 (stereo partly drawn) [Example 43, N-((1r,4r)-4-(2-phenylpyrrolidine-1-carbonyl)cyclohexyl)quinoline-3-sulfonamide] as the compound, how does the IC50 read?
Answer: Its IC50 is 412 nM.

Question: Which IC50 does the source give for Cn1ccc2cc(S(=O)(=O)N[C@H]3CC[C@H](C(=O)N[C@H]4CCCCNC4=O)CC3)ccc21 [Example 672, (1r,4S)-4-(1-methyl-1H-indole-5-sulfonamido)-N-((S)-2-oxoazepan-3-yl)cyclohexanecarboxamide] here?
Answer: The IC50 was 639 nM.

Question: With CN1CCN(c2ccc(-c3nc4cc(S(=O)(=O)Nc5ccc(-c6nnc(C(C)(C)C)o6)cc5)ccc4[nH]3)cc2)CC1 [Example 592, N-(4-(5-tert-butyl-1,3,4-oxadiazol-2-yl)phenyl)-2-(4-(4-methylpiperazin-1-yl)phenyl)-1H-benzo[d]imidazole-5-sulfonamide] as the compound, how does the IC50 read?
Answer: Its IC50 is 415 nM.

Question: Which IC50 does the source give for COC1CCN(C(=O)[C@H]2CC[C@H](NS(=O)(=O)c3ccc4[nH]c(-c5ccccc5)nc4c3)CC2)CC1 [Example 669, N-((1r,4r)-4-(4-methoxypiperidine-1-carbonyl)cyclohexyl)-2-phenyl-1H-benzo[d]imidazole-5-sulfonamide] here?
Answer: Its IC50 is 362 nM.

Question: Cn1cc(C#N)c2cc(S(=O)(=O)N[C@H]3CC[C@H](C(=O)N[C@@H](c4ccccc4)C(C)(C)O)CC3)ccc21 [Example 89, (1r,4S)-4-(3-cyano-1-methyl-1H-indole-5-sulfonamido)-N-((S)-2-hydroxy-2-methyl-1-phenylpropyl)cyclohexanecarboxamide] was tested. Which IC50 did it give?
Answer: Its IC50 is 20 nM.

Question: Which IC50 does the source give for [2H]C([2H])([2H])N1CCOc2ccc(S(=O)(=O)N[C@H]3CC[C@H](C(=O)N[C@H](C)c4ccc(F)cc4)CC3)cc21 [Example 158, (1r,4R)-N-((R)-1-(4-fluorophenyl)ethyl)-4-(4-(trideuteriomethyl)-3,4-dihydro-2H-benzo[b][1,4]oxazine-6-sulfonamido)cyclohexanecarboxamide] here?
Answer: The IC50 was 20 nM.

Question: Which IC50 does the source give for C[C@@H]1CN(C(=O)[C@H]2CC[C@H](NS(=O)(=O)c3ccc4c(C#N)c(C5CC5)n(C)c4c3)CC2)C[C@H](C)O1 [Example 417, 3-cyano-2-cyclopropyl-N-((1R,4r)-4-((2S,6R)-2,6-dimethylmorpholine-4-carbonyl)cyclohexyl)-1-methyl-1H-indole-6-sulfonamide] here?
Answer: The IC50 was 80 nM.

Question: How did the IC50 turn out when Cc1cc(CO)ccc1-c1cc2ccc(S(=O)(=O)N[C@H]3CC[C@H](C(=O)N4CCN(C(=O)OC(C)(C)C)C[C@@H]4c4ccccc4)CC3)cc2[nH]1 [Example 309, (S)-tert-butyl 4-((1r,4S)-4-(2-(4-(hydroxymethyl)-2-methylphenyl)-1H-indole-6-sulfonamido)cyclohexanecarbonyl)-3-phenylpiperazine-1-carboxylate] was run?
Answer: The IC50 was 20 nM.

Question: Which IC50 does the source give for COC(=O)c1ccc(-c2cc3ccc(S(=O)(=O)N[C@H]4CC[C@H](C(=O)N[C@H](C)c5ccc(F)cc5)CC4)cc3[nH]2)c(C)c1 [Example 300] here?
Answer: Its IC50 is 10 nM.

Question: With C[C@H]1CCCCN1C(=O)[C@H]1CC[C@H](NS(=O)(=O)c2ccc3cc(-c4ccc(CCC(=O)O)cc4)n(C)c3c2)CC1 [Example 410, 3-(4-(1-methyl-6-(N-((1S,4r)-4-((S)-2-methylpiperidine-1-carbonyl)cyclohexyl)sulfamoyl)-1H-indol-2-yl)phenyl)propanoic acid] as the compound, how does the IC50 read?
Answer: Its IC50 is 20 nM.
